Measurements as given in ChEMBL document CHEMBL1201862, “PubChem BioAssay data set” (2004).
The source made the active and inactive calls.

How the values were obtained:
[1] = molecular target: Peroxisome proliferator-activated receptor gamma/Nuclear receptor coactivator 3 (Homo sapiens, UniProt P37231); format: functional;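 note: agonist potency for raising coactivator recruitment to the receptor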
[2] = molecular target: Peroxisome proliferator-activated receptor gamma/Nuclear receptor coactivator 2 (Homo sapiens, UniProt P37231); format: functional;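 note: agonist potency for raising coactivator recruitment to the receptor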
[3] = molecular target: Peroxisome proliferator-activated receptor gamma/Nuclear receptor coactivator 1 (Homo sapiens, UniProt P37231); format: functional;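 note: agonist potency as compounds enhance coactivator SRC-1 recruitment to PPARgamma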
[4] = growth suppression of PTEN-null colon cells, dose response, cell-based, HCT116 PTEN knockout (AID 1047); format: functional;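 note: HCT116 colon tumor cells with PTEN knocked out; cells exposed to compound for 60 hours before readout; potency for loss of cell viability measured by luminescence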
[5] = growth suppression of beta-catenin-knockout colon cells, dose response, cell-based, HCT116, human colon tumor (AID 1045); format: functional;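 note: HCT116 colon tumor cells with beta catenin knocked out; cells exposed to compound for 60 hours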
[6] = molecular target: T1, Heat shock factor protein 1 (Mus musculus, UniProt P38532); test: inhibition of MG132-induced HSE-luciferase signal, confirmation, cell-based, NIH3T3, luminescence, dose retest (AID 2382); format: functional;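 note: NIH3T3 fibroblasts with HSF1-driven luciferase reporter stressed by proteasome inhibitor MG132; luminescence from HSF1-driven luciferase expression after 8 hours of MG132 stress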
T1 sequence (P38532 whole entry): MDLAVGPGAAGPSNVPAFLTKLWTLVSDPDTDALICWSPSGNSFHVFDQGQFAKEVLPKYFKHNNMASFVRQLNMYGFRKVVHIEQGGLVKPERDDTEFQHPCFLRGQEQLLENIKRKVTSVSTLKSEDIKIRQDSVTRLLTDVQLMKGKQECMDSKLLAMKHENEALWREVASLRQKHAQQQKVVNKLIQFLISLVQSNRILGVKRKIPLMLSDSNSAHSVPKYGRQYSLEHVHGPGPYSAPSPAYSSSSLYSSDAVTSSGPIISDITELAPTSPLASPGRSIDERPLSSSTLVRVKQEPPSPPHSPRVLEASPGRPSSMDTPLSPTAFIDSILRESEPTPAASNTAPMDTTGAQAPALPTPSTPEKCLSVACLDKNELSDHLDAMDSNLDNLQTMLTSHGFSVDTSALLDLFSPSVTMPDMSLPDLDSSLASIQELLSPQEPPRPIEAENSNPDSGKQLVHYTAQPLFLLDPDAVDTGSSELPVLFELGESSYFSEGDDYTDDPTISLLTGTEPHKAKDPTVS

[7] = microbe, parasite or virus in culture; format: functional; settings: Mycobacterium tuberculosis
[8] = molecular target: Heat shock protein HSP 90-alpha (Homo sapiens, UniProt P07900); format: functional, organism-based
[9] = molecular target: Glyceraldehyde-3-phosphate dehydrogenase (Homo sapiens, UniProt P04406)
[10] = molecular target: T2, Alkaline phosphatase, tissue-nonspecific isozyme (Homo sapiens, UniProt P05186); test: human TNAP enzyme inhibitors, SAR follow-up, biochemical, luminescent, dose response (AID 1056)
T2 sequence (P05186 whole entry): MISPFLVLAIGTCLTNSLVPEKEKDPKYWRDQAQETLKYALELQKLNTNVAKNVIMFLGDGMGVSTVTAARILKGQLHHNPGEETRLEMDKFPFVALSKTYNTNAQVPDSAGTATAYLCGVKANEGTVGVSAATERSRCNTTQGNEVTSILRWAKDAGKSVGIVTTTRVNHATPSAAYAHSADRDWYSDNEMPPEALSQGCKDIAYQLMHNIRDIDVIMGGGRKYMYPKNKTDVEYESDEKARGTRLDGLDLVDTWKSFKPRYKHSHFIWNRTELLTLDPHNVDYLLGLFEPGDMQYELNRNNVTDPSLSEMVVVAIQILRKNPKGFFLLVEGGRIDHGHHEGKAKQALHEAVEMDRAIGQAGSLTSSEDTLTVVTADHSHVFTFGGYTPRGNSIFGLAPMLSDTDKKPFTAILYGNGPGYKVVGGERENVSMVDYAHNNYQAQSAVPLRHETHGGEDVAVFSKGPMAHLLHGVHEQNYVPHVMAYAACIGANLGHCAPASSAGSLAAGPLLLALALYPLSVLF

Protein RecA = molecular target: T3, Protein RecA (Mycobacterium tuberculosis, UniProt P9WHJ3); test: Fluorescence Cell-Free Homogeneous Dose Retest to Identify Inhibitors of RecA-Intein Splicing Activity. [Related pubchem assays (depositor defined):AID2097, AID2223, AID489010, AID492950]; format: functional
T3 sequence (P9WHJ3 whole entry): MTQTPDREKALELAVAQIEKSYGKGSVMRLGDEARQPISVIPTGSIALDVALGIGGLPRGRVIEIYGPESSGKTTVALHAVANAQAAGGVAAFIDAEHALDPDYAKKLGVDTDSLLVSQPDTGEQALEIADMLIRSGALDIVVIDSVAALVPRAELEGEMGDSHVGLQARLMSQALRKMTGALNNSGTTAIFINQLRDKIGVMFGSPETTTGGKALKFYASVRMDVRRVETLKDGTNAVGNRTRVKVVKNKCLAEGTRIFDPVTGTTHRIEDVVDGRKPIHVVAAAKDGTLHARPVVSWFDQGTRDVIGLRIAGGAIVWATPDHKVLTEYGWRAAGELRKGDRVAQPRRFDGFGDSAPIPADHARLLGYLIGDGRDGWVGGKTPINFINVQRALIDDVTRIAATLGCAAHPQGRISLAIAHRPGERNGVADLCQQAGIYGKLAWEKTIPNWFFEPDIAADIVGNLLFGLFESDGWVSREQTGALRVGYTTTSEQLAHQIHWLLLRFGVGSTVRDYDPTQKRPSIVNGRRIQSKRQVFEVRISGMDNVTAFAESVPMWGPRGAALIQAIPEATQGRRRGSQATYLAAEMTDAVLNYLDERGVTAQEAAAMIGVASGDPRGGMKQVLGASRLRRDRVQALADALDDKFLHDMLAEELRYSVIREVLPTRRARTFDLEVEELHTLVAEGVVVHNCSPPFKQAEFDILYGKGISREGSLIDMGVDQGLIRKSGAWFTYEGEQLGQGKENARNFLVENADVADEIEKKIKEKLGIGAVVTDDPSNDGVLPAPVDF

[11] = molecular target: T4, Replicative DNA helicase DnaB (Mycobacterium tuberculosis, UniProt P9WMR3); test: DnaB intein splicing inhibitors, dose response, biochemical, cell-free fluorescence (AID 449749); format: functional
T4 sequence (P9WMR3 whole entry): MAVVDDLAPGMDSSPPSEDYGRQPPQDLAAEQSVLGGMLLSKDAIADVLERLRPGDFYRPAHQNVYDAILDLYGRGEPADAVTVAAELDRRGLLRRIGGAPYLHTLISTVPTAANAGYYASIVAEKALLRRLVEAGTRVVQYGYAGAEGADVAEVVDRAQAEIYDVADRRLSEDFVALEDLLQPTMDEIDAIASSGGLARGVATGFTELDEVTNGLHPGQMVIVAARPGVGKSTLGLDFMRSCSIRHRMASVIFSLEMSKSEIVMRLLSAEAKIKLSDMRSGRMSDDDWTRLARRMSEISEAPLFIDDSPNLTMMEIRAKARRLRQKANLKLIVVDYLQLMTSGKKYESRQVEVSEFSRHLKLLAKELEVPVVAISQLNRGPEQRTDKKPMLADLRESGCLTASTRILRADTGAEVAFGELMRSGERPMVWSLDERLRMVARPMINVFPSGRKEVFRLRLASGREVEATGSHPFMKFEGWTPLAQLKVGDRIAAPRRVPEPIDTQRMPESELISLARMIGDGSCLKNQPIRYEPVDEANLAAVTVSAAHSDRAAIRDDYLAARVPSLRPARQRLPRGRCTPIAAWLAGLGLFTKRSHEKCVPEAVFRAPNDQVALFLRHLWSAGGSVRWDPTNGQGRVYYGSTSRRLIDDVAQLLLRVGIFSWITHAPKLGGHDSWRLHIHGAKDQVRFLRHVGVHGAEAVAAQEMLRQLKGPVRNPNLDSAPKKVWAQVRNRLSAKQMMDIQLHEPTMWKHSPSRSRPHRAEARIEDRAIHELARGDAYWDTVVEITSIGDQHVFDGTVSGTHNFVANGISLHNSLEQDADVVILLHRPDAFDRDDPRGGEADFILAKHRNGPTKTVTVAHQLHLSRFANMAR

[12] = molecular target: T5, Histone-lysine N-methyltransferase NSD2 (Homo sapiens, UniProt O96028); format: biochemical
T5 sequence (O96028 whole entry): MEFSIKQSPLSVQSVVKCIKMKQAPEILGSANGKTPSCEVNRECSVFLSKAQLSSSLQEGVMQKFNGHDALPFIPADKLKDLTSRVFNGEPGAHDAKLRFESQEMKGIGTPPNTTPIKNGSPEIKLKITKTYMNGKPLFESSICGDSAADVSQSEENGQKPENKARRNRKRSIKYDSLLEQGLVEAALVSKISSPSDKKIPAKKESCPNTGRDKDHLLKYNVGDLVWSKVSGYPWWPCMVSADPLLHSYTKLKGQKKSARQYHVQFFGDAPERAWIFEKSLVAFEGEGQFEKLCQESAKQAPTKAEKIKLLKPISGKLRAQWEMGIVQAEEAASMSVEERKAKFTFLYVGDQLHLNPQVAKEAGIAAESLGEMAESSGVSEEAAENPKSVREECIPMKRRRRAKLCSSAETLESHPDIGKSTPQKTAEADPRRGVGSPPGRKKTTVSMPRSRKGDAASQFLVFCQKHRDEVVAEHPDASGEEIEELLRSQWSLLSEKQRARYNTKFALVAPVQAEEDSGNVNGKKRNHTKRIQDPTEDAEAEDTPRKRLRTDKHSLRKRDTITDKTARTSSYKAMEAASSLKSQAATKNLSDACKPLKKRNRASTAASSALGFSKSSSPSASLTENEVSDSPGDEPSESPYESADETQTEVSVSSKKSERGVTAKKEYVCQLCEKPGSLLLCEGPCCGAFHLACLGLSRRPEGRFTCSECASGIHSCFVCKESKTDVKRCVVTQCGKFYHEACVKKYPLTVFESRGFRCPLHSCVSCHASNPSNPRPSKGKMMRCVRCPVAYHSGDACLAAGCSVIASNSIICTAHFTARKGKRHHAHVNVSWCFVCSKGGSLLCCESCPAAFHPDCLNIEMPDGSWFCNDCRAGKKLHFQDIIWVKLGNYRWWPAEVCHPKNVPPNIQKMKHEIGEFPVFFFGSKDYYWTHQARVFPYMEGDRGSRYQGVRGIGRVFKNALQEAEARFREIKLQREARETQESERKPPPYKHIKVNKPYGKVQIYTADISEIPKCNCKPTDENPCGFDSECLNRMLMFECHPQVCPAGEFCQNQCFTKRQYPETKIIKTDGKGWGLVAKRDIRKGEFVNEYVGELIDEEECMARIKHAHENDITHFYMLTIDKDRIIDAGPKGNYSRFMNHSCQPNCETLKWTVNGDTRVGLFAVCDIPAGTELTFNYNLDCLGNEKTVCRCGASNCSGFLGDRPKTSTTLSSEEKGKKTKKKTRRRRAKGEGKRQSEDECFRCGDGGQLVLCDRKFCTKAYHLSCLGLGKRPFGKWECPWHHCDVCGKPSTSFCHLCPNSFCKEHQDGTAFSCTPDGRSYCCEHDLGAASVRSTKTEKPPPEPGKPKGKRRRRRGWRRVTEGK

Fatty acid synthase = Fatty acid synthase (Homo sapiens, UniProt P49327); test: FAS thioesterase domain inhibitors, dose response, biochemical, kinetic fluorescence intensity (AID 624326); format: functional;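 note: rate of fluorescence rise from hydrolysis of a fluorogenic O-methyl fluorescein ester substrate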
[13] = HEp-2 cell cytotoxicity, dose response, cytotoxicity control for RSV inhibitor project, HTS (AID 2410); format: functional; settings: human respiratory syncytial virus

Sequence of Peroxisome proliferator-activated receptor gamma/Nuclear receptor coactivator 2 (P37231 whole entry): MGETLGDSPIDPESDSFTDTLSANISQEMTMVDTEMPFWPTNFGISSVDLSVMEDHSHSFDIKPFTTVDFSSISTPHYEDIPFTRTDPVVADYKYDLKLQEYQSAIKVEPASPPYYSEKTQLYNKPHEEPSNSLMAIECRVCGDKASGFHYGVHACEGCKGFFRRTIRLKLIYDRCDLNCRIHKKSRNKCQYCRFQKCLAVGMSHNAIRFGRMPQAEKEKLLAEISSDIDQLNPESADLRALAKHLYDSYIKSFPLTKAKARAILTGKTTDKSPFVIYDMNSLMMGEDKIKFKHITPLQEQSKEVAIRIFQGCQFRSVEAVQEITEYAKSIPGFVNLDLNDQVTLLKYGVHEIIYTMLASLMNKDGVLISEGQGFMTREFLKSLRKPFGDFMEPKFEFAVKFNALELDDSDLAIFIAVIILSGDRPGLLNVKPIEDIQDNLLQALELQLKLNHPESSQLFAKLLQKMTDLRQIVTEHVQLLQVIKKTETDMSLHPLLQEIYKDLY
Sequence of Peroxisome proliferator-activated receptor gamma/Nuclear receptor coactivator 2 (Q15596 whole entry, further chain): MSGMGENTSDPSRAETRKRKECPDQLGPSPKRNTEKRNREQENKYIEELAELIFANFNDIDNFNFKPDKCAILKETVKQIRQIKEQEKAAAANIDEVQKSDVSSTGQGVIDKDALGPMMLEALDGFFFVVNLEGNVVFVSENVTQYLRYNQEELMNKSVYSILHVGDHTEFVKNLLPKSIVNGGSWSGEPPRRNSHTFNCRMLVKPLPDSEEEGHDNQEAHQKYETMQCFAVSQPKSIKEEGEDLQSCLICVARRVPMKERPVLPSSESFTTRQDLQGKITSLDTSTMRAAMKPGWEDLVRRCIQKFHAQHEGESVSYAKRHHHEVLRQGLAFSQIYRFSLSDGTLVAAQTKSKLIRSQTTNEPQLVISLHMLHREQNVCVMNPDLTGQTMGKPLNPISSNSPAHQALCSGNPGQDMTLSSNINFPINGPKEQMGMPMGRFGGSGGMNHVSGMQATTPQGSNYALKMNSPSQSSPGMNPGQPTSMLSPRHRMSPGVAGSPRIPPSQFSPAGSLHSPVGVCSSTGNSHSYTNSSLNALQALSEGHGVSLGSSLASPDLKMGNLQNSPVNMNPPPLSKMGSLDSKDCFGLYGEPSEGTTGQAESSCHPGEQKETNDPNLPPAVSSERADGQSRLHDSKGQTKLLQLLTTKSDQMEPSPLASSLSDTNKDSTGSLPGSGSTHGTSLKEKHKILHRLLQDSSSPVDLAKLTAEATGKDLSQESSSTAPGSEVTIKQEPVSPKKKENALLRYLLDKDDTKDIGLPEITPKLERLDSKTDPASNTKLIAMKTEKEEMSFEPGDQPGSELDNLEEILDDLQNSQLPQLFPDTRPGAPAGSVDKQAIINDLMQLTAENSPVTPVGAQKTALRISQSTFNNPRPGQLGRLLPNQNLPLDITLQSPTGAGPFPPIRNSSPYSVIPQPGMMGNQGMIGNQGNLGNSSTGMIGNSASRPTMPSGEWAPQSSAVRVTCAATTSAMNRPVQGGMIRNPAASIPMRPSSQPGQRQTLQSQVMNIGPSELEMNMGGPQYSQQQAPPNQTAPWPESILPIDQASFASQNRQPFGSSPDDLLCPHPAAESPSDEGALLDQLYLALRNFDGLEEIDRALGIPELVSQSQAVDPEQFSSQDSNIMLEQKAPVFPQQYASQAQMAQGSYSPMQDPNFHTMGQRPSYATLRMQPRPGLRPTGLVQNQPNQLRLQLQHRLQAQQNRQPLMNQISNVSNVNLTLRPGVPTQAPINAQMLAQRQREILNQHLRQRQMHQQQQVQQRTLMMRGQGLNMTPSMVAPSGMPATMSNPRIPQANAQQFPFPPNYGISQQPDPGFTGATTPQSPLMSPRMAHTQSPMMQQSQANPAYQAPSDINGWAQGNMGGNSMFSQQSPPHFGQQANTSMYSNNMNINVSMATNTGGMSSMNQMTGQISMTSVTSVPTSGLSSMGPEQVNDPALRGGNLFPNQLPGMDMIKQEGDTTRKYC
Sequence of Peroxisome proliferator-activated receptor gamma/Nuclear receptor coactivator 1 (P37231 whole entry): as the sequence (P37231 whole entry) above
Sequence of Peroxisome proliferator-activated receptor gamma/Nuclear receptor coactivator 1 (Q15788 whole entry, further chain): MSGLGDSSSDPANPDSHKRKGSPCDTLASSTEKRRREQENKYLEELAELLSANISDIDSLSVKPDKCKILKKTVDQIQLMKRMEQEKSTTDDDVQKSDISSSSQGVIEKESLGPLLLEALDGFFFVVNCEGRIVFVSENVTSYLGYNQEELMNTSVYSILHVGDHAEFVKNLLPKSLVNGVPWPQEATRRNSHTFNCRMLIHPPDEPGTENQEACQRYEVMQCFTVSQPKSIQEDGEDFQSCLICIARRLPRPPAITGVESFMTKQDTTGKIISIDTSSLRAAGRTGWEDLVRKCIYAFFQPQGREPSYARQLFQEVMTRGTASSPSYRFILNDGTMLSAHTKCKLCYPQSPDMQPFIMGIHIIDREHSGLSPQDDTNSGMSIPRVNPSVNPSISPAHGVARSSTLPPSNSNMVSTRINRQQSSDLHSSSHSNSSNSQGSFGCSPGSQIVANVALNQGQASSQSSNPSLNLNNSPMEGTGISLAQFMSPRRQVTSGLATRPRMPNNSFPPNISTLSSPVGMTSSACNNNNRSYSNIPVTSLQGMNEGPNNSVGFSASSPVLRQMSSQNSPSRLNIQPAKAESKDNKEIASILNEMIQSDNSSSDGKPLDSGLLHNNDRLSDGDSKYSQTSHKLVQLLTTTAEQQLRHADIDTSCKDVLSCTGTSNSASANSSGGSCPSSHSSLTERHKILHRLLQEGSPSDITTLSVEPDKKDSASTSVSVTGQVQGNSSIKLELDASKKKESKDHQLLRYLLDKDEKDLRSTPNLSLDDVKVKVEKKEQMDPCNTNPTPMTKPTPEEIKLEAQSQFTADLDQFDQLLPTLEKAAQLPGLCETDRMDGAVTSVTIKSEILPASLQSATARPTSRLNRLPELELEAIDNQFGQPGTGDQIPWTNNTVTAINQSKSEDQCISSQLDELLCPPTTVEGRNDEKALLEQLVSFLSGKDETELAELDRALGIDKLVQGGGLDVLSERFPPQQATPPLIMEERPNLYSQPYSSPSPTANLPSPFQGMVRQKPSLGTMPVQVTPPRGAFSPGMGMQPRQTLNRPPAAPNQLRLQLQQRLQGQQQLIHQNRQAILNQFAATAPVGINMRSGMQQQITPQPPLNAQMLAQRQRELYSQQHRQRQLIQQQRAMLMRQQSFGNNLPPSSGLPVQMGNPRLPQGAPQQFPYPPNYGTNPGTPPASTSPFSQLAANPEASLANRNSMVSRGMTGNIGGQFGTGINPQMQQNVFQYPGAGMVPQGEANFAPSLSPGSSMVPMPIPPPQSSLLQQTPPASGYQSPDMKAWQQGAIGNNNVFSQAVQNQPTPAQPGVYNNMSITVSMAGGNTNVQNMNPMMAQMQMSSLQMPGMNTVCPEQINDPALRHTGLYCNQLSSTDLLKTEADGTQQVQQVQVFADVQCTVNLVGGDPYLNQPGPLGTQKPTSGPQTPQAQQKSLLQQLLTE
Sequence of Glyceraldehyde-3-phosphate dehydrogenase (P04406 whole entry): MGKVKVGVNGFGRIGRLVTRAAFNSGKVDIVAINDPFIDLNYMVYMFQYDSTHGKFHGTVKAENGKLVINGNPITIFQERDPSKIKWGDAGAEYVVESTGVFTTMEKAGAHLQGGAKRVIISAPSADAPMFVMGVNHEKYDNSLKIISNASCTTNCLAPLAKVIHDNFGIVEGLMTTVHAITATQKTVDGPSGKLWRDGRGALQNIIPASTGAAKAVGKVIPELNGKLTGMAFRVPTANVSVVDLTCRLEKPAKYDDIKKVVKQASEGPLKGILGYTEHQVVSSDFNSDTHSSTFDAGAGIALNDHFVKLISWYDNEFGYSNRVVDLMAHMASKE

SMILES: CC(C)(C)NC(=O)CSc1nc(O)cc(=O)n1-c1ccccc1F
- EC50 [1]: > 79.4 µM (not active)
- EC50 [2]: > 79.4 µM (not active)
- EC50 [3]: > 79.4 µM (not active)

SMILES: O=C(c1cccc(C(F)(F)F)c1)N1CCN(c2cc(O)nnc2-c2ccccc2)CC1
- EC50 [1]: > 79.4 µM (not active)
- EC50 [2]: > 79.4 µM (not active)
- EC50 [3]: > 79.4 µM (not active)

SMILES: COc1ccc(-c2noc(Cc3ccccc3OC)n2)cc1
- EC50 [1]: > 79.4 µM (not active)
- EC50 [2]: > 79.4 µM (not active)
- EC50 [3]: > 79.4 µM (not active)

SMILES: Cc1ccccc1N=C(S)NC(NC(=O)COc1ccccc1)C(Cl)(Cl)Cl (configuration not stated)
- EC50 [4]: 27.2 µM (active)
- EC50 [5]: 31 µM (active)

SMILES: O=C(c1ccc(-c2ccccc2)c(F)c1)C1CCCN(C(=O)c2cncs2)C1 (configuration not stated)
- EC50 [6]: > 195 µM (not active)
- CC50 [7]: 32.9 µM (active)
- AC50 [8]: 7.61 µM (active)

SMILES: Cc1cc(N2CCN(c3cccc(C)c3C)CC2)nc(-c2ccccc2)n1
- AC50 [8]: 1.66 µM (active)

SMILES: Cc1nn(-c2ccccc2)c2sc(C(=O)NNC(=O)COc3cccc4ccccc34)cc12
- EC50 [4]: 19.2 µM (active)
- EC50 [5]: 19.3 µM (active)

SMILES: CNC(=O)c1n[nH]c2c1COc1ccccc1-2
- IC50 [9]: > 100 µM (not active)
- IC50 [10]: > 100 µM (inactive)

SMILES: CCOC(=O)c1[nH]c(CSc2nnc(-c3ccc(OC)cc3)o2)c(C(=O)OCC)c1C
- EC50 [4]: 20.8 µM (active)
- EC50 [5]: 21.6 µM (active)

SMILES: CC(C)(C)c1ccc(-c2nnc3sc(-c4ccncc4)nn23)cc1
- EC50 [1]: > 79.4 µM (not active)
- EC50 [2]: > 79.4 µM (not active)
- EC50 [3]: > 79.4 µM (not active)

SMILES: COc1ccc(-c2nnc(Sc3nc4ccccc4o3)c3ccccc23)cc1
- EC50 (Protein RecA): 0.703 µM (active)
- AC50 [11]: 3.8 µM (active)
- EC50 [4]: 18.3 µM (active)
- EC50 [5]: 16.2 µM (active)

SMILES: COC(=O)Nc1ccc2c(c1)N(C(=O)CCN(C)C)c1ccccc1CC2
- AC50 [12]: > 20 µM (inactive)

SMILES: CC1(C(=O)NS(=O)(=O)c2ccc(C#N)cc2)CCN1C(=O)c1ccc(C2CCCCC2)cc1 (configuration not stated)
- IC50 (Fatty acid synthase): 5.24 µM (active)

SMILES: NCc1cc(-c2cccnc2)no1
- IC50 [9]: > 100 µM (not active)
- IC50 [10]: > 100 µM (inactive)

SMILES: c1cncc(-c2cc[nH]n2)c1
- IC50 [9]: > 100 µM (not active)
- IC50 [10]: > 100 µM (inactive)

SMILES: CCOCCCNC1=C(Cl)C(=O)c2ccccc2C1=O
- AC50 [8]: 10.6 µM (active)
- AC50 [12]: 12.3 µM (active)

SMILES: C#CCn1/c(=N/C(=O)c2ccc(Cl)s2)sc2cccc(OC)c21
- CC50 [13]: 19.1 µM (active)
- EC50 [1]: 21.5 µM (not active)
- EC50 [2]: 12.8 µM (not active)
- EC50 [3]: 18.4 µM (not active)

SMILES: O=S(=O)(c1ccc2ccccc2c1)n1ccc2ccccc21
- IC50 [9]: > 100 µM (not active)
- IC50 [10]: > 100 µM (inactive)
